Here are results for 55 molecules from patent publication US8779154B2, “Fused ring compounds for inflammation and immune-related uses” (priority 2006, dated 2014).

A word on the IC50: it is the concentration at which inhibition is half-maximal. High values mean weaker potency, low ones greater potency.

The test system of the first assay is IL-2 production. The assay can be described thus: Inhibition of IL-2 production in PHA-activated Jurkat cells (ELISA). As to conditions: Homo sapiens, Jurkat, 20 h, PHA 2.5 μg/mL, IL-2 ELISA. Format: cell-based. As to the method: Jurkat cells were placed in a 96 well plate (0.5 million cells per well in 1% FBS medium) then a test compound of this invention was added at different concentrations. After 10 minutes, the cells were activated with PHA (final concentration 2.5 μg/mL) and incubated for 20 hours at 37° C. under CO2. The final volume was 200 μL. Following incubation, the cells were centrifuged and the supernatants collected and stored at −70° C. prior to assaying for IL-2 production. A commercial ELISA kit (IL-2 Eli-pair, Diaclone Research, Besancon, France) was used to detect production of IL-2, from which dose response curves were obtained. The IC50 value was calculated as the concentration at which 50% of maximum IL-2 production after stimulation was inhibited versus a non-stimulation control.
(In general: An ELISA detects its analyte on a solid surface through an enzyme-linked reagent.)
For the molecule `O=C(Nc1c(F)cccc1F)c1nc2c(s1)-c1cc(-c3cnco3)ccc1CCC2` [Compound 19], the half-inhibitory concentration (IC50) was at most 30 nM.

`O=C(Nc1ccc2c(c1)CCCc1cnc(C3CC3)nc1-2)c1c(F)cccc1F` [Compound 110] had an IC50 of 250 to 500 nM.

`N#Cc1ccc2c(c1)-c1sc(NC(=O)c3c(F)cccc3F)nc1CCC2` [Compound 80] displayed an IC50 above 1000 nM.

As to `O=C(Nc1ccc2c(c1)CCCc1cnc(-c3ccncc3)nc1-2)c1c(F)cccc1F` [Compound 108], the IC50 lay in the range of 30 to 100 nM.

The molecule `O=C(Nc1c(F)cccc1F)c1nc2c(s1)-c1cc(-c3ccc(F)nc3)ccc1CCC2` [Compound 120] registered an IC50 of 250 to 500 nM.

In turn, `O=C(Nc1nc2c(s1)-c1ccc(-n3ccnc3)cc1CCC2)c1c(F)cccc1F` [Compound 74] gave an IC50 of 100 to 250 nM.

`Nc1ccc(-c2ccc3c(c2)-c2sc(C(=O)Nc4c(F)cccc4F)nc2CCC3)cn1` [Compound 115] came in with an IC50 of 30 to 100 nM.

As for `COc1ccc2c(c1)-c1cnc(NC(=O)c3c(F)cccc3F)nc1CCO2` [Compound 94], the IC50 is above 1000 nM.

In turn, `CN1Cc2ccc(Br)cc2-c2sc(NCc3c(F)cccc3F)nc2C1` [Compound 137] returned an IC50 above 1000 nM.

In the case of `COc1cccc2c1CCCc1nc(NC(=O)c3ccncc3F)sc1-2` [Compound 14], the IC50 fell in the range of 100 to 250 nM.

Molecule `Cc1nc(-c2ccc3c(c2)CCCc2nc(NC(=O)c4c(F)cccc4F)sc2-3)no1` [Compound 60] returned an IC50 of 30 to 100 nM.

For the molecule `COc1cccc2c1CCCc1nc(C(=O)Nc3c(F)cccc3F)sc1-2` [Compound 6], the IC50 lay within 250 to 500 nM.

For `COc1ccc2c(c1)-c1sc(NC(=O)c3ccncc3F)nc1CCC2` [Compound 3], the IC50 is above 1000 nM.

In turn, `O=C(Nc1c(F)cccc1F)c1nc2c(s1)-c1cc(-c3nccs3)ccc1CCC2` [Compound 34] gave an IC50 of at most 30 nM.

`O=C(Nc1nc2c(s1)-c1cc(Br)sc1CCC2)c1c(F)cccc1F` [Compound 84] yielded an IC50 above 1000 nM.

With `O=C(Nc1nc2c(s1)-c1nc(-c3cccnc3)sc1CCC2)c1c(F)cccc1F` [Compound 88], the IC50 was 500 to 1000 nM.

On to `Fc1cccc(F)c1CNc1nc2c(s1)-c1cccc(-c3cnco3)c1CCC2` [Compound 69], for which the IC50 fell in the range of 250 to 500 nM.

The molecule `O=C(Nc1nc2c(=O)oc3ccc(O)cc3c2s1)c1c(F)cccc1F` [Compound 15] registered an IC50 above 1000 nM.

The molecule `Cn1nnnc1-c1ccc2c(c1)-c1sc(C(=O)Nc3c(F)cccc3F)nc1CCC2` [Compound 39] yielded an IC50 of at most 30 nM.

`Cn1cc(-c2ccc3c(c2)-c2sc(C(=O)Nc4c(F)cccc4F)nc2CCC3)cn1` [Compound 127] had an IC50 of at most 30 nM.

Regarding `O=C(Nc1nc2c(s1)-c1cc(-c3nccs3)ccc1CCC2)c1c(F)cccc1F` [Compound 83], the IC50 is 100 to 250 nM.

In turn, `COc1ccc2c(c1)-c1sc(C(=O)Nc3ccncc3C)nc1CCC2` [Compound 10] yielded an IC50 of 250 to 500 nM.

In turn, `CN1Cc2ccc(Br)cc2-c2sc(NC(=O)c3c(F)cccc3F)nc2C1=O` [Compound 135] registered an IC50 above 1000 nM.

Take `COc1ccc2c(c1)-c1sc(/C(=N\O)Nc3c(F)cccc3F)nc1CCC2` [Compound 147]: the IC50 is 500 to 1000 nM.

Turning to `O=C(Nc1c(F)cccc1F)c1nc2c(s1)-c1cc(-c3cn[nH]c3)ccc1CCC2` [Compound 128], the 50% inhibitory concentration (IC50) lay within 100 to 250 nM.

Molecule `O=C(Nc1nc2c(s1)-c1cc(O)ccc1CCC2)c1c(F)cccc1F` [Compound 79] came in with an IC50 of 250 to 500 nM.

As for `CN1Cc2ccc(Br)cc2-c2sc(C(=O)Nc3c(F)cccc3F)nc2C1=O` [Compound 140], the IC50 is above 1000 nM.

For `O=C(Nc1nc2c(=O)oc3ccc(C(F)(F)F)cc3c2s1)c1c(F)cccc1F` [Compound 1], the 50% inhibitory concentration (IC50) was above 1000 nM.

In turn, `O=C(Nc1ccc2c(c1)CCCc1cnc(-c3cccnc3)nc1-2)c1c(F)cccc1F` [Compound 99] showed an IC50 of 30 to 100 nM.

With `O=c1oc2ccc(C(F)(F)F)cc2c2sc(NCc3c(F)cccc3F)nc12` [Compound 7], the concentration for half-maximal inhibition (IC50) was above 1000 nM.

On to `O=C(Nc1c(F)cccc1F)c1nc2c(s1)-c1cc(-c3ccncc3)ccc1CCC2` [Compound 125], for which the IC50 is 30 to 100 nM.

Molecule `O=C(Nc1c(F)cccc1F)c1nc2c(s1)-c1ccccc1CCC2` [Compound 31] displayed an IC50 above 1000 nM.

`COc1ncccc1-c1ccc2c(c1)-c1sc(C(=O)Nc3c(F)cccc3F)nc1CCC2` [Compound 123] gave an IC50 of at most 30 nM.

For `COc1ccc2c(c1)-c1sc(/C(=N/c3c(F)cccc3F)SC)nc1CCC2` [Compound 144], the IC50 is above 1000 nM.

Consider `CCOC(=O)N(C(=O)c1nc2c(s1)-c1cc(OC)ccc1CCC2)c1c(F)cccc1F` [Compound 143], for which the IC50 lay in the range of 100 to 250 nM.

`O=C(Nc1ccc2c(c1)CCCc1cnc(-c3ccccn3)nc1-2)c1c(F)cccc1F` [Compound 106]: the IC50 was 500 to 1000 nM.

With `O=C(Nc1c(F)cccc1F)c1nc2c(s1)-c1nc(-c3cccnc3)sc1CCC2` [Compound 133], the IC50 lay in the range of 30 to 100 nM.

In turn, `O=C1OCc2ccc(Br)cc2-c2sc(NC(=O)c3c(F)cccc3F)nc21` [Compound 139] gave an IC50 above 1000 nM.

Regarding `O=C(Nc1c(F)cccc1F)c1nc2c(s1)-c1cc(CN3CCOCC3)ccc1CCC2` [Compound 42], the IC50 was above 1000 nM.

Molecule `COc1ccc2c(c1)CCCc1nc(NC(=O)c3c(F)cccc3F)cnc1-2` [Compound 96] registered an IC50 of 250 to 500 nM.

The molecule `CC/N=C(/Nc1c(F)cccc1F)c1nc2c(s1)-c1cc(OC)ccc1CCC2` [Compound 149] gave an IC50 of 100 to 250 nM.

`COc1cc(-c2ccc3c(c2)-c2sc(C(=O)Nc4c(F)cccc4F)nc2CCC3)ccn1` [Compound 119] had an IC50 of 100 to 250 nM.

`Cn1nnc(-c2ccc3c(c2)-c2sc(C(=O)Nc4c(F)cccc4F)nc2CCC3)n1` [Compound 41] gave an IC50 of 250 to 500 nM.

Consider `O=C(Nc1nc2c(s1)-c1cc(-c3ccccn3)ccc1CCC2)c1c(F)cccc1F` [Compound 82], for which the IC50 was above 1000 nM.

Turning to `COc1ccc2c(c1)-c1cnc(NC(=O)c3ccncc3C)nc1CCO2` [Compound 95], the IC50 is above 1000 nM.

`O=C(Nc1nc2c(s1)-c1ccc(I)cc1CCC2)c1c(F)cccc1F` [Compound 72] gave an IC50 of 30 to 100 nM.

As to `O=C(Nc1nc2c(s1)-c1ccsc1CCC2)c1c(F)cccc1F` [Compound 85], the IC50 is above 1000 nM.

In turn, `O=C(Nc1nc2c(s1)-c1cc(Br)ccc1CCC2)c1c(F)cccc1F` [Compound 17] had an IC50 above 1000 nM.

`O=C(Nc1c(F)cccc1F)c1ccc2c(c1)CCCc1cnc(-c3cccnc3)nc1-2` [Compound 142] gave an IC50 of 100 to 250 nM.

In turn, `COc1ccc2c(c1)-c1sc(NC(=O)c3c(F)cccc3F)nc1CCO2` [Compound 4] yielded an IC50 above 1000 nM.

Consider `O=C1NCc2ccc(Br)cc2-c2sc(NC(=O)c3c(F)cccc3F)nc21` [Compound 136], for which the IC50 was above 1000 nM.

As to `O=C(Nc1c(F)cccc1F)c1nc2c(s1)-c1cc(-c3nnn[nH]3)ccc1CCC2` [Compound 40], the IC50 was above 1000 nM.

`O=Cc1cccc2c1CCCc1nc(NC(=O)c3c(F)cccc3F)sc1-2` [Compound 67]: the IC50 is 500 to 1000 nM.

Regarding `N#Cc1ccc2c(c1)CCCc1nc(NC(=O)c3c(F)cccc3F)sc1-2` [Compound 59], the IC50 was in the range of 30 to 100 nM.

The same assay, now with this note: Homo sapiens, PHA 2.5 μg/mL, 20 hours, IL-2 ELISA.
With `O=C(Nc1c(F)ccc([N+](=O)[O-])c1F)c1nc2c(s1)-c1cc([N+](=O)[O-])ccc1CCC2` [Compound 36], the IC50 was 500 to 1000 nM.
